Measurements: patent US12325715B2, “Fluorous metal chelates compositions” (The Regents of the University of California, priority 2018, dated 2025)
Each block holds one compound with its values, some of them ahead of it.

Key:
[1] = Intramolecular 19F NMR relaxation rates at 9.4 T; assay type: physicochemical; conditions: 5 CF2 groups (precursors and Ga3+ chelate), ± s.e.m.
Text: Intramolecular ^19F NMR relaxometry measurements of 5a isomers further confirmed the structural analyses. We observed that among Fe3+ chelates, 5a OOO isomer had the highest, and 5a PPP isomer had the lowest, R1 and R2 values (Table 3). Ortho-substitution caused a more drastic intramolecular PRE, by ˜3 orders of magnitude, compared to para-substitution due to the closer proximity of the Fe3+ paramagnetic center to the ortho position ([…]) compared to the para position ([…]).
NMR spectra and relaxation rates were recorded on a Bruker Ascend 400 MHz (9.4 T) spectrometer (Billerica, MA). Additional relaxation rate measurements were performed at 3 T using a GE750 (General Electric, Milwaukee, WI) clinical MRI system equipped with a custom dual-channel ^19F/1H 72 mm diameter volume coil (RAPID Biomedical, Rimpar, Germany). The ^19F NMR spectra were referenced to an internal standard, sodium trifluoroacetate (NaTFA, 0.1 wt %, −76.00 ppm, Sigma-Aldrich, T6508), which was placed in a separate sealed capillary tube within the NMR tube. Relaxation measurements were performed using a standard inversion recovery pulse sequence and a Carr-Purcell-Meiboom-Gill sequence with echo-time (TE) values in 12 linear increments. The T1 and T2 values were obtained by nonlinear fitting using MNova 6.0.2 software (Mestrelab, Escondido, CA). Fit errors were less than 5% of T1 and T2 values. For quantitative peak measurements, spectra were acquired using calibrated 90° pulses, 32,000 complex points, spectral window 0 to −200 ppm, relaxation delay 2.5 s, and 128 averages. Spectra were processed in MNova with manual phase correction and Whittaker smoother baseline correction (filter=1 ppm). Relaxation parameters were measured for six middle CF2 peaks of PFOB, spanning ˜10 ppm, which account for 12 out of 17 F atoms in the molecule. To assay nanoemulsion uptake (^19F/cell) using NMR, an aliquot of 1×10^6 cells were pelleted and resuspended in 0.1 mL of lysis solution (0.5% Triton X, 100 mM NaCl, 20 mM Tris, 1 mM EDTA) and reference compound NaTFA (0.745 mg/mL)/D2O was added to 5 mm NMR tube. The integrated ratio of PFOB fluorine peaks to NaTFA singlet fluorine peak at −76.00 ppm determined the amount of ^19F in the cell pellet and the ^19F/cell was calculated.
(§1) NMR measurements. NMR spectra and relaxation rates were recorded on a Bruker Ascend 400 MHz (9.4 T) spectrometer (Billerica, MA). […] For quantitative peak measurements, spectra were acquired using calibrated 90° pulses, 32,000 complex points, spectral window 0 to −200 ppm, relaxation delay 2.5 s, and 128 averages. […] Relaxation parameters were measured for six middle CF2 peaks of PFOB, spanning ˜10 ppm, which account for 12 out of 17 F atoms in the molecule. […]

[2] = cited from earlier work
[3] = 3 T; cited from earlier work
[4] = Intermolecular 19F NMR relaxometry and susceptibility shift in PFOB; assay type: physicochemical; conditions: neat PFOB
Text: We screened the impact of various cations bound to SALTAME 5a and dissolved in PFOB via NMR relaxometry and susceptibility shift measurements (Table 4). Of the period-4 cations tested (V3+, Cr3+, Mn2+, Fe3+, Co2+, Cu2+, Ni2+, Zn2+, Ga3+), only Mn4+, Fe3+, Co3+, and Ga3+ formed stable and separable (by column chromatography) chelates with SALTAME. […] The diamagnetic Ga3+ chelate had little relaxation effects or shift for PFOB. […] Mn4+ changed r1, r2 and susceptibility shift, but to a much lesser extent than Fe3+.
The longitudinal and transverse ^19F relaxation rates of the Fe3+ chelate, 5a POP, was further evaluated as a function of iron concentration at the clinically-relevant field strength of 3 T yielding relaxivities r1 and r2 of 0.56 s−1 mM−1 and 1.67 s−1 mM−1, respectively, compared to 0.50 s−1 mM−1 and 1.07 s−1 mM−1 values of r1 and r2 at 9.4 T, respectively. […]
as §1, with “NMR” for “NMR measurements. NMR”

[5] = 19F R1 relaxation leakage test of metalated emulsions with EDTA at 37 °C; assay type: physicochemical; conditions: small fluorinated diketones
Text: Decrease in relaxation rate ^19F R1 would indicate sequestration of Fe^3+ to the aqueous phase, where it is too far from fluorine-19 nuclei to have an effect on ^19F R1.
It may be necessary for sufficient stability to use fluorinated diketones with heavily fluorinated substituents that are well-miscible with other fluorinated agents known in the art to be useful for ^19F MRI.

[6] = Kinetics of emulsion metalation with metal salts (UV-Vis); assay type: physicochemical
Protocol: Strong absorbance of aromatic diketone and its complexes permits facile kinetic investigation of metalation rates. In a typical measurement, emulsion from example 4 was diluted to 70 uM diketone (excess ligand, modeling radiolabeling conditions) into a solution of chosen pH and treated with 10 uM metal cations of relevance to medical imaging, including Fe^3+ (MRI), Cu^2+ (PET), Ga^3+ (PET, SPECT), Sc^3+ (PET), and In^3+ (SPECT). In all cases, UV-Vis spectral changes indicative of metal uptake into the fluorous phase were detected, proportional in magnitude to the amount of metal. For some metals, kinetic analysis was performed. The reaction time course fit well to a pseudo-first-order process with rate constant kobs (Table 1).

RAW cells = assay: NAO flow cytometry assay for cytotoxicity (apoptosis); assay type: cell-based, murine; conditions: 16 h labeling, compared to unlabeled cells
Protocol: We investigated the potential effect of P-PFOB labeling on RAW cell viability and phenotype (FIG. 4A-FIG. 4D). To study cytotoxicity, we used a flow cytometry assay for apoptosis (FIGS. 4A-4C) using 10-N-nonyl acridine orange (NAO).^20 As a positive control to induce oxidative stress, 10% ethanol was added to the cell media. […] Side-scatter is routinely used in flow cytometry to distinguish cell types by granularity. Labeled cells often display increased granularity with internalization of PFC droplets. To assay cell phenotype, we used flow cytometry to monitor potential changes in cell surface CD86 expression as a marker for macrophage activation, where increased levels indicated a pro-inflammatory response to label. Lipopolysaccharide (LPS) treatment was used as a positive control to induce a pro-inflammatory phenotype.
Viability assay. 10-N-nonyl acridine orange (NAO) was obtained from Invitrogen (A1372, Carlsbad, CA). NE labeled and control RAW cells were stained with 100 ng/ml of NAO for 15 minutes followed by washes according to manufacturer's instructions. As a positive control, cells were stressed by incubation with 10% ethanol at 37° C. containing 5% CO2 for 90 minutes before NAO staining. Green fluorescence from NAO dye (emission max at 520 nm) was detected using flow cytometry (LSR Fortessa, BD Biosciences).

[7] = final [M3+] 10 uM, final [ligand] 70 uM, pH 2.1 (8 mM HCl)

SMILES: O=Cc1cccc(C(F)(F)C(F)(F)C(F)(F)C(F)(F)C(F)(F)C(F)(F)F)c1O [3b, 3-Perfluorohexyl-salicylaldehyde]
R1 (intramolecular 19F) [1]: 0.87 ± 0.01 s⁻¹
R2 (intramolecular 19F) [1]: 1.12 ± 0.01 s⁻¹

SMILES: FC1(F)OC(F)(F)C(F)(F)OC(F)(F)C(F)(F)OC(F)(F)C(F)(F)OC(F)(F)C(F)(F)OC1(F)F [PFCE, perfluoro-15-crown-5-ether]
half-life in vivo (body) [2]: > 100 days
T1 [3]: ~0.9 ms

SMILES: FC(F)(F)C(F)(F)C(F)(F)C(F)(F)C(F)(F)C(F)(F)C(F)(F)C(F)(F)Br [PFOB, perfluorooctylbromide]
half-life in vivo (body) [2]: 3 to 8 days
R1 ([4]; 3 T): 0.79 s⁻¹
R1 ([4]; 9.4 T): 1.4 s⁻¹
T1 [3]: ~1200 ms

SMILES: CC(C)(C)C(=O)CC(=O)C(F)(F)C(F)(F)C(F)(F)F [H-fod]
enhancing relaxation [5]: highly effective
stability under EDTA competition and cell labeling [5]: not stable enough

SMILES: [Cl][Ga]([Cl])[Cl] [GaCl3]
kobs [6, 7]: 0.043 min⁻¹

SMILES: CCO [ethanol]
cytotoxicity (NAO apoptosis assay) (RAW cells): display cytotoxicity

stability under EDTA competition and cell labeling [5]: not stable enough
SMILES: O=C(CC(=O)C(F)(F)F)c1cccs1 [H-tta]
enhancing relaxation [5]: highly effective

SMILES: C/C(O)=C/C(=O)C(F)(F)C(F)(F)C(F)(F)C(F)(F)C(F)(F)C(F)(F)F [H-tdd]
enhancing relaxation [5]: highly effective
stability under EDTA competition and cell labeling [5]: not stable enough

SMILES: O=Cc1cc(C(F)(F)C(F)(F)C(F)(F)C(F)(F)C(F)(F)C(F)(F)F)ccc1O [3a, 5-Perfluorohexyl-salicylaldehyde]
R1 (intramolecular 19F) [1]: 1.33 ± 0.01 s⁻¹
R2 (intramolecular 19F) [1]: 1.75 ± 0.01 s⁻¹

stability under EDTA competition and cell labeling [5]: not stable enough
SMILES: O=C(CC(=O)C(F)(F)F)c1ccccc1 [H-bta]
enhancing relaxation [5]: highly effective

SMILES: C/C(O)=C/C(=O)C(F)(F)C(F)(F)C(F)(F)F [H-hhd]
enhancing relaxation [5]: highly effective
stability under EDTA competition and cell labeling [5]: not stable enough

SMILES: [Cl][Fe]([Cl])[Cl] [FeCl3]
kobs ([6]; final [M3+] 5 uM, final [ligand] 70 uM, pH 2.1 (8 mM HCl)): 0.79 min⁻¹
kobs [6, 7]: 0.70 min⁻¹

SMILES: [Cl-].[Cl-].[Cl-].[In+3] [InCl3]
kobs ([6]; final [M3+] 2 uM, final [ligand] 14 uM, pH ~5 (unbuffered H2O)): >10 min⁻¹
kobs ([6]; final [M3+] 10 uM, final [ligand] 70 uM, pH 7.4 HEPES): 0.0322 min⁻¹

stability under EDTA competition and cell labeling [5]: not stable enough
SMILES: O=C(CC(=O)C(F)(F)F)C(F)(F)F [H-hfp]
enhancing relaxation [5]: highly effective
